In patent publication US4997849A, “Microbial transformation of simvastatin” (Merck & Co., Inc., priority 1989, dated 1991):
Blank lines part the entries; values can stand above or below the molecule they belong to.

Assays:
[1] = target: T1, HMG-CoA reductase (Rattus norvegicus, UniProt P51639); assay: intrinsic HMG-CoA reductase inhibition activity, in vitro protocol of J. Med. Chem., 1985, 28, page 347; type: biochemical; settings: potassium salt
T1 construct: from tissue
T1 sequence (P51639 1-887): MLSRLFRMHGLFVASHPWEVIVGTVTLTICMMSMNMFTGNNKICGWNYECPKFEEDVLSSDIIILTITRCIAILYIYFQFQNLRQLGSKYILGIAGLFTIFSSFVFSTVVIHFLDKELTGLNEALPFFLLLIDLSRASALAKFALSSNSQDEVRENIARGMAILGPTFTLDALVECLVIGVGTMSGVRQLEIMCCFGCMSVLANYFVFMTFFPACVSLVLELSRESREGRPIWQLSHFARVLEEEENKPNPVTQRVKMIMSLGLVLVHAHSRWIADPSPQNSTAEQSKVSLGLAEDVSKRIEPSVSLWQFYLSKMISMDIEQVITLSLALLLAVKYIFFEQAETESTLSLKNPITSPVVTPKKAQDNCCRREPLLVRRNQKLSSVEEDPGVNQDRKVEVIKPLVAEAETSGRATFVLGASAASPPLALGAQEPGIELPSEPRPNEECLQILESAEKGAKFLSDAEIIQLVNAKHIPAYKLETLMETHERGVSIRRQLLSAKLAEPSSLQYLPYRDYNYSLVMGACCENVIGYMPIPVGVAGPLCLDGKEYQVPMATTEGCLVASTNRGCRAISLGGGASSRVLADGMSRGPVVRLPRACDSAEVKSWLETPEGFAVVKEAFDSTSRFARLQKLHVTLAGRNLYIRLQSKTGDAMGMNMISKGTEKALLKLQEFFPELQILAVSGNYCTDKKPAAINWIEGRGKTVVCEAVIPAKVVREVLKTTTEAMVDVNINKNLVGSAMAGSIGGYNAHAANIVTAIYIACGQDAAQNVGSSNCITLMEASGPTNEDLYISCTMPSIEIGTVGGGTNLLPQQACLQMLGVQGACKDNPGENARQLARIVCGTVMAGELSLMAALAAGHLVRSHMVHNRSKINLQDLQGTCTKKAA
Description: The intrinsic HMG-CoA reductase inhibition activity of the claimed compounds is measured in the in vitro protocol described in J. Med. Chem., 1985, 28, page 347.

[2] = reversion of free dihydroxy acid to parent lactone on standing; type: physicochemical; settings: on standing at room temperature
Description: The sodium salt of the compound II from Example 8 is dissolved in 2 ml of ethanol-water (1:1; v:v) and added to 10 ml of 0.1N hydrochloric acid from which the dihydroxy acid is extracted with ethyl acetate. The organic extract is washed once with water, dried (Na2 SO4), and evaporated in vacuo with a bath temperature not exceeding 30° C.

[3] = target: T2, HMG-CoA reductase (Homo sapiens, UniProt P04035); settings: relative to lovastatin; cited from earlier work
T2 sequence (P04035 1-888): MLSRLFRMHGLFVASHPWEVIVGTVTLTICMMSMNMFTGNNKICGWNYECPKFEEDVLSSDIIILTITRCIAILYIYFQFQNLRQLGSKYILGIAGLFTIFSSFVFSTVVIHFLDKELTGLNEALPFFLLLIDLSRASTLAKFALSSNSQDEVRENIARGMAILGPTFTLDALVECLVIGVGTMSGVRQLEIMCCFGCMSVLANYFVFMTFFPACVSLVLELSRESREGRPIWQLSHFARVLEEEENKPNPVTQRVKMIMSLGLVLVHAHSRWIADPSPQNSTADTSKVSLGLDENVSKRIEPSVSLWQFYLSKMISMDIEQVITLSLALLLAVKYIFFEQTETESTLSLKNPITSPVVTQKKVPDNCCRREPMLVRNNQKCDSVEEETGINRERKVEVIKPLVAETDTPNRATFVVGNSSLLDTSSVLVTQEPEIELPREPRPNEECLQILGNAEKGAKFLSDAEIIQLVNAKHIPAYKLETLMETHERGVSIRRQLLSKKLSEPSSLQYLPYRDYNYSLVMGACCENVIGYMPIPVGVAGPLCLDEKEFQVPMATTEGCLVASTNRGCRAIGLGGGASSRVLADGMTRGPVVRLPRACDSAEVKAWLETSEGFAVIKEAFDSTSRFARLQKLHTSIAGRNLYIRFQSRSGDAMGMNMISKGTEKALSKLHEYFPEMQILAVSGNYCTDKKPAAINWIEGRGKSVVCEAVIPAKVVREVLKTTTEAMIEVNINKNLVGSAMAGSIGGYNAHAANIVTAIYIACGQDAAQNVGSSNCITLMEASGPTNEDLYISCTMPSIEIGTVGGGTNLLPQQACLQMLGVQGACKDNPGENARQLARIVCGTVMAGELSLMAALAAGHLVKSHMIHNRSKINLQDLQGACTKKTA

- IC50 [1]: 0.897 µM
SMILES: CC1C=Cc2cc(CO)ccc2C1CC[C@@H](O)C[C@@H](O)CC(=O)O (stereo partly drawn)

SMILES: CC1C=Cc2cc(CO)ccc2C1CC[C@@H](O)C[C@@H](O)CC(=O)O (stereo partly drawn) [dihydroxy acid derivative]
- reversion to the corresponding parent lactone [2]: slowly reverts to the corresponding parent lactone on standing at room temperature

SMILES: CCC(C)(C)C(=O)O[C@H]1C[C@@H](C)C=C2C=C[C@H](C)[C@H](CC[C@@H]3C[C@@H](O)CC(=O)O3)[C@H]21 [simvastatin]
- HMG-CoA reductase inhibitor potency compared with lovastatin [3]: even more potent HMG-CoA reductase inhibitor than lovastatin
